Source: article PMC7911295, “Metabolism of Zearalenone in the Rumen of Dairy Cows with and without Application of a Zearalenone-Degrading Enzyme” (Toxins, 2021)
Where two headings read alike, the source gives them in different places.

Assays:
estrogen receptors = test system: estrogen receptors; set-up: method as in doi:10.2903/j.efsa.2016.4425; conditions: cited from earlier work
[1] = Feeding trial in rumen-fistulated dairy cows: ZEN and ZEN metabolites in feces; format: in vivo, Holstein Friesian cows; conditions: feces
From the text: (§1) Ruminal metabolism of ZEN with and without supplementation of ZenA was investigated in four rumen-fistulated Holstein Friesian cows (sex: female; age at start: 5.9 ± 1.0 years; body weight at start: 863 ± 65 kg; physiological stage: non-lactating; general health: good, non-gestating; identification procedure: ear tag 4-digit code). The cows were part of the dairy herd of VetFarm (Teaching and Research Farm) of the University of Veterinary Medicine Vienna in Kremesberg, Austria. All procedures related to these experiments were performed according to Austrian law and following the European Guidelines for the Care and Use of Animals for Research Purpose. The animal experiment was approved by ethics and animal welfare commission of the University of Veterinary Medicine, Vienna and the Austrian Federal Ministry of Education, Science and Research (68.205/0156-WF/V/3b/2017, 30.08.2017).
(§2) In our trial setup, each animal was considered an experimental unit (n = 4). Each animal received the same treatment and served as its own control. First, each animal received ZEN-contaminated concentrate feed. Following a 48-h washout period, each animal received ZEN-contaminated concentrate feed supplemented with ZenA. In brief, for acclimatization, on the day prior to the start of the feeding trial, each animal was manually fed 4 × 500 g of control concentrate (Table 4 and Table 5). Thereafter, animals were manually fed (i) 1 × 500 g concentrate contaminated with ZEN and 3 × 500 g control concentrate on experimental day 1 (ZEN treatment), (ii) 4 × 500 g control concentrate on day 2 (ZEN washout), (iii) 1 × 500 g ZEN-contaminated concentrate supplemented with ZenA and 3 × 500 g control concentrate on day 3 (ZEN+ZenA treatment), and (iv) 4 × 500 g control concentrate on day 4 (ZEN+ZenA washout; Table 6). Animals were treated and assessed in the same random order at each experimental time point.
On days 1 and 3 of the experiment, feces samples were taken from the rectum immediately before concentrate feeding (0 h), as well as 10 h after concentrate feeding (Table 6) and stored at −20 °C. Aliquots (500 mg) of thoroughly homogenized feces samples were extracted for HPLC-MS/MS analysis according to the method described by Binder and coworkers.
HPLC-MS/MS analysis of ZEN, α-ZEL, β-ZEL, HZEN and DHZEN in rumen fluid and feces was performed as described for the in vitro rumen fermentation experiment (see section “In Vitro Rumen Fermentation Experiment”, subsection “Analysis of ZEN and its Metabolites”), with the following modifications. Chromatographic separation was performed with a flow rate of 0.6 mL/min, a duration of 4 min and an injection volume was 1 µL. The gradient started at 30% B which was held for 0.3 min. Subsequently, the proportion of B was increased to 80% from 0.3 to 2 min, and increased to 100% from 2 to 2.1 min. […] LODs for ZEN, α-ZEL, β-ZEL, HZEN and DHZEN in rumen fluid were 2.83 nmol/L (0.9 µg/L), 2.81 nmol/L (0.9 µg/L), 2.81 nmol/L (0.9 µg/L), 2.68 nmol/L (0.9 µg/L) and 10.27 nmol/L (3 µg/L), respectively. LOQs for ZEN, α-ZEL, β-ZEL, HZEN and DHZEN in rumen fluid were 9.43 nmol/L (3 µg/L), 9.37 nmol/L (3 µg/L), 9.37 nmol/L (3 µg/L), 8.93 nmol/L (3 µg/L) and 30.81 nmol/L (9 µg/L), respectively. LODs for ZEN, α-ZEL, β-ZEL, HZEN and DHZEN in feces were 0.03 nmol/g (8.4 ng/g), 0.03 nmol/g (8.4 ng/g), 0.03 nmol/g (8.4 ng/g), 0.03 nmol/g (8.4 ng/g) and 0.10 nmol/g (28 ng/g), respectively. LOQs for ZEN, α-ZEL, β-ZEL, HZEN and DHZEN in feces were 0.09 nmol/g (28 ng/g), 0.09 nmol/g (28 ng/g), 0.09 nmol/g (28 ng/g), 0.08 nmol/g (28 ng/g) and 0.29 nmol/g (84 ng/g), respectively.

[2] = Feeding trial in rumen-fistulated dairy cows: ZEN and ZEN metabolites in rumen fluid from reticulum, dorsal mat layer and ventral sac; format: in vivo, Holstein Friesian cows; conditions: for Percentage of concentration relative to the sum of ZEN and ZEN metabolite concentrations: reticulorumen; for Time to elimination: ventral sac and reticulum; for Traces still detected at (time after administration of ZEN-contaminated concentrate): time point 0 h of the ZEN+ZenA treatment; for Tmax: female, Holstein Friesian, bovine, in vivo, po, 5 mg, read-out: Time of peak concentration post-administration (converted)
From the text: as §1, §2
For production of ZEN-contaminated concentrate feed, lyophilizate of ZEN with maltodextrin as a carrier was prepared. To this end, in three parallel preparations, 50 mg ZEN (Fermentek, Jerusalem, Israel) was dissolved in 1 L RO water (pH 12; adjusted with NaOH) using a magnetic stirrer set to 400 rpm and 37 °C for 20 min. Subsequently, 100 g maltodextrin DE19 (Agrana, Vienna, Austria) was added and dissolved by stirring (400 rpm) at room temperature for 10 min. The solution was lyophilized. Lyophilizate was mixed into concentrate feed at an inclusion rate of 2%. The final concentration of ZEN in feed was aimed to be 10 mg/kg and was verified using HPLC-MS/MS analysis as described below. For production of ZEN-contaminated, ZenA-supplemented concentrate, a zearalenone hydrolase ZenA preparation (ZENzyme®; EC 3.1.1.-; BIOMIN Holding GmbH, Getzersdorf, Austria) was mixed into ZEN-contaminated concentrate to achieve an activity of 128 U/kg feed. Same as in the in vitro trial, 1 U of ZenA was defined as the enzyme activity that hydrolyzes 1 μmol ZEN per minute from 15.71 µM ZEN in Teorell Stenhagen buffer adjusted to pH 7.5 containing 0.1 mg/mL bovine serum albumin at 37 °C.
On days 1 and 3 of the trial (ZEN and ZEN+ZenA treatment, respectively), ruminal digesta samples were taken from reticulum, ventral sac and dorsal mat layer (Figure 3) immediately before concentrate feeding (0 h), as well as 15 min, 1 h, 2 h, 4 h, 7 h and 10 h after concentrate feeding (Table 6). On days 2 and 4 of the trial (washout days), ruminal digesta samples were taken immediately before first concentrate feeding (0 h), as well as 10 h after first concentrate feeding (Table 6). Ruminal digesta samples (10 mL) were taken via a rumen fistula from reticulum and ventral sac (10 cm above the bottom of the rumen) using a pump as described previously. Samples were taken from the dorsal mat layer 20 cm below the gas phase and rumen fluid was obtained by manually squeezing the samples as described previously. Samples were mixed 1:2 with acetonitrile by vortexing. […]

[3] = ZEN+ZenA treatment, 0 h (48 h after ZEN treatment)
[4] = dorsal mat layer, ZEN treatment
[5] = ZEN treatment, 15 min after feeding, from median of 3 locations
[6] = reticulum and ventral sac, ZEN treatment

SMILES	Estrogenic potency relative to ZEN (estrogen receptors) [times]	Percentage of concentration relative to the sum of ZEN and ZEN metabolite concentrations ([1]; ZEN treatment, 10 h) [%]	Percentage of concentration relative to the sum of ZEN and ZEN metabolite concentrations [1, 3] [%]	Percentage of concentration relative to the sum of ZEN and ZEN metabolite concentrations ([1]; ZEN+ZenA treatment, 10 h)	Percentage of concentration relative to the sum of ZEN and ZEN metabolite concentrations [2, 5]	Percentage of concentration relative to the sum of ZEN and ZEN metabolite concentrations ([2]; ZEN treatment, 1 h) [%]	Percentage of concentration relative to the sum of ZEN and ZEN metabolite concentrations ([2]; ZEN treatment, 4 h)	Percentage of concentration relative to the sum of ZEN and ZEN metabolite concentrations ([2]; ZEN treatment, 7 h)	Percentage of concentration relative to the sum of ZEN and ZEN metabolite concentrations ([2]; ZEN treatment, 10 h) [%]	Percentage of concentration relative to the sum of ZEN and ZEN metabolite concentrations ([2]; ZEN treatment, 24 h) [%]	Percentage of concentration relative to the sum of ZEN and ZEN metabolite concentrations ([2]; ZEN+ZenA treatment, 15 min)	Percentage of concentration relative to the sum of ZEN and ZEN metabolite concentrations ([2]; ZEN+ZenA treatment, 1 h)	Percentage of concentration relative to the sum of ZEN and ZEN metabolite concentrations ([2]; ZEN+ZenA treatment, 4 h)	Percentage of concentration relative to the sum of ZEN and ZEN metabolite concentrations ([2]; ZEN+ZenA treatment, 7 h)	Percentage of concentration relative to the sum of ZEN and ZEN metabolite concentrations ([2]; ZEN+ZenA treatment, 10 h)	Time to elimination ([2]; ZEN treatment) [h]	Low concentrations still detected at (time after concentrate feeding) [2, 4] [h]	Traces still detected at (time after administration of ZEN-contaminated concentrate) ([2]; dorsal mat layer) [h]	Detected up until (time after concentrate feeding) [2, 6] [h]	also measured
C[C@H]1CCC[C@@H](O)CCC/C=C/c2cc(O)cc(O)c2C(=O)O1 [β-ZEL, β-zearalenol]	0.2	78.1	69.0	59.1%	0.0 (traces) %	7.6	0.0 (traces) %	0.0 (traces) %	0.0	0.0	0.0%	0.0%	0.0%	0.0%	0.0%	≤ 34	–	–	–	Detection in rumen fluid ([2]; any reticulorumen location, ZEN+ZenA treatment): not detected; Period of detection at low concentrations [2, 4]: 1 to 7 h; Time of detection at low concentrations ([2]; ventral sac, ZEN treatment): 1 h
C[C@H]1CCC[C@H](O)CCC/C=C/c2cc(O)cc(O)c2C(=O)O1 [α-ZEL, α-zearalenol]	60	10.9	15.5	9.0%	0.0 (traces) %	7.6	15.9%	21.3%	25.6	49.8	0.0 (traces) %	0.0%	0.0%	0.0%	0.0 (traces) %	≤ 34	34	48	24	First detected (time after concentrate feeding) [2, 4]: 1 h; First detected (time after concentrate feeding) [2, 6]: 0.25 h; Detection in rumen fluid ([2]; ventral sac, ZEN+ZenA treatment): not detected
C[C@H]1CCCC(=O)CCC/C=C/c2cc(O)cc(O)c2C(=O)O1 [ZEN, zearalenone]	–	11.0	15.6	0.0 (traces) %	100.0%	84.8	84.1%	78.7%	74.4	50.2	5.9%	0.0 (traces) %	0.0 (traces) %	0.0 (traces) %	0.0 (traces) %	≤ 34	34	48	24	Tmax [2, 4]: 1 h; Tmax ([2]; reticulum, ZEN treatment (5 mg ZEN oral)): 0.25 h; Tmax ([2]; ventral sac, ZEN treatment): 1 h
